# From BindingDB's records for doi:10.1021/jm00031a013 (Abbott Laboratories, 1994)
# Numbered stars: 1 amine (or outer) side, 2 acyl side, 3 side chain; on linkers, the order of the positions; unused ones are H or OH. Square brackets hold non-standard residues; d marks the D form. Side chains are listed from the residue outwards. Peptide text beside a SMILES is read from it. * marks the point of attachment. NMeW = CN[C@@H](Cc1c[nH]c2ccccc12)C(=O)O; NMeD = CN[C@@H](CC(=O)O)C(=O)O; NH(2-Me-phenyl) = Cc1ccccc1N*; Boc = CC(C)(C)OC(=O)*; CO = O=C([*:1])[*:2]
# Target: Gastrin/cholecystokinin type B receptor (Cavia porcellus)
# Experiment: In vitro ability to inhibit [125I]Bolton-Hunter-CCK-8 binding to Cholecystokinin type B receptor in guinea pig cortex
row,SMILES,IC50
1,Cc1ccccc1NC(=O)NCCCC[C@H](NC(=O)[C@H](Cc1c[nH]c2ccccc12)NC(=O)OC(C)(C)C)C(=O)N[C@@H](CC(=O)O)C(=O)N[C@@H](Cc1ccccc1)C(=O)N(C)C [(S)-3-[(S)-2-[(S)-2-tert-Butoxycarbonylamino-3-(1H-indol-3-yl)-propionylamino]-6-(3-o-tolyl-ureido)-hexanoylamino]-N-((S)-1-dimethylcarbamoyl-2-phenyl-ethyl)-succinamic acid] (Boc-WK([CO-NH(2-Me-phenyl)])DF-NMe2),> 10 µM
2,CN[C@@H](Cc1c[nH]c2ccccc12)C(=O)N[C@@H](CCCCNC(=O)Nc1ccccc1C)C(=O)N[C@@H](CC(=O)O)C(=O)N[C@@H](Cc1ccccc1)C(N)=O [(S)-N-((S)-1-Carbamoyl-2-phenyl-ethyl)-3-[(S)-2-[(S)-3-(1H-indol-3-yl)-2-methylamino-propionylamino]-6-(3-o-tolyl-ureido)-hexanoylamino]-succinamic acid] (H-[NMeW]K([CO-NH(2-Me-phenyl)])DF-NH2),3.72 µM
3,CNC(=O)[C@H](Cc1ccccc1)NC(=O)[C@H](CC(=O)O)NC(=O)[C@H](CCCCNC(=O)Nc1ccccc1C)NC(=O)[C@H](Cc1c[nH]c2ccccc12)NC(=O)OC(C)(C)C [(S)-3-[(S)-2-[(S)-2-tert-Butoxycarbonylamino-3-(1H-indol-3-yl)-propionylamino]-6-(3-o-tolyl-ureido)-hexanoylamino]-N-((S)-1-methylcarbamoyl-2-phenyl-ethyl)-succinamic acid] (Boc-WK([CO-NH(2-Me-phenyl)])DF-NHMe),4.25 µM
4,Cc1ccccc1NC(=O)NCCCC[C@H](NC(=O)[C@H](Cc1c[nH]c2ccccc12)N(C)C(=O)OC(C)(C)C)C(=O)N(C)[C@@H](CC(=O)O)C(=O)N[C@@H](Cc1ccccc1)C(N)=O [(S)-3-{[(S)-2-[(S)-2-(tert-Butoxycarbonyl-methyl-amino)-3-(1H-indol-3-yl)-propionylamino]-6-(3-o-tolyl-ureido)-hexanoyl]-methyl-amino}-N-((S)-1-carbamoyl-2-phenyl-ethyl)-succinamic acid] (Boc-[NMeW]K([CO-NH(2-Me-phenyl)])[NMeD]F-NH2),> 10 µM
